# Tests used:
# [1] = Fine particle mass (FPM) by Andersen Cascade Impactor on storage, section A canisters; format: physicochemical
# Experimental: The FPM of an actuation from an MDI can be calculated based on, for example, the sum of the amount of drug substance deposited on stages 3, 4 and 5 of an Andersen Cascade Impaction stack as determined by standard HPLC analysis.
# (§1) In the experiments below canisters were stored in an inverted orientation. Valves all had 63 μl metering volume. Water content was measured ex-valve using Karl-Fischer methodology.
# (§2) Aluminium canisters fitted with Valois D60 valve and containing 12 g HFA 134a and 6.53 mg salmeterol xinafoate were stored under various conditions of temperature and humidity and the moisture content measured and FPM measured (Andersen Cascade Impactor), with results as follows:
# (§3) Aluminium canisters fitted with Valois DF60 valve and containing 12g HFA 134a and 6.53 mg salmeterol xinafoate were stored under various conditions of temperature and humidity and the moisture content measured and FPM measured (Andersen Cascade Impactor), with results as follows:
# (§4) Aluminium canisters fitted with Bespak valve and containing […] and 6.53 mg salmeterol xinafoate were stored under various conditions of temperature and humidity and the moisture content measured and FPM measured (Andersen Cascade Impactor), with results as follows:
# (§5) Aluminium canisters fitted with Valois DF60 valve and containing 12g HFA134a and 6.53 mg salmeterol xinafoate were stored under various conditions of temperature and humidity and the moisture content measured and FPM measured (Andersen Cascade Impactor), with results as follows: […]
# [2] = Water content of salmeterol xinafoate HFA 134a canisters on storage, ex-valve Karl-Fischer; format: physicochemical
# Experimental: The water content of the formulation may be determined by conventional Karl Fischer methodology. Typically this involves measuring the total water content of the formulation ex-valve using Couliometric titration.
# as §1, §2, §3, §4, §5
# [3] = (iii) Valois D60 valve, 30° C./60% RH, 3 months
# [4] = (iii) Valois D60 valve, 40° C./75% RH, 1 month
# [5] = (iii) Valois D60 valve, 40° C./75% RH, 3 months
# [6] = (iii) Valois D60 valve, 40° C./75% RH, Initial
# [7] = (iv) Valois DF60 valve, 25° C./60% RH, 1 month
# [8] = (iv) Valois DF60 valve, 25° C./60% RH, 3 months
# [9] = (iv) Valois DF60 valve, 25° C./60% RH, 6 month
# [10] = (iv) Valois DF60 valve, 25° C./60% RH, Initial
# [11] = (iv) Valois DF60 valve, 25° C./75% RH, 1 month
# [12] = (iv) Valois DF60 valve, 25° C./75% RH, 3 months
# [13] = (iv) Valois DF60 valve, 25° C./75% RH, 6 month
# [14] = (iv) Valois DF60 valve, 25° C./75% RH, Initial
# [15] = (iv) Valois DF60 valve, 40° C./75% RH, 1 month
# [16] = (iv) Valois DF60 valve, 40° C./75% RH, 3 months
# [17] = (iv) Valois DF60 valve, 40° C./75% RH, 6 month
# [18] = (v) Bespak valve, 40° C./75% RH, 3 months
# [19] = (vi) Valois DF60 valve, 40° C./75% RH, 3 months
# [20] = (vii) Valois DF60 valve, 40° C./75% RH, 3 months
smiles,measurement,setting,value
"OCc1cc(C(O)CNCCCCCCOCCCCc2ccccc2)ccc1O (stereo not drawn) [salmeterol xinafoate, 4-Hydroxy-α^1-[[[6-(4-phenylbutoxy)hexyl]amino]methyl]-1,3-benzenedimethanol]",FPM,[1]; [3],7.9 µg
same,FPM,"[1]; (iii) Valois D60 valve, 30° C./60% RH, Initial",10.3 µg
same,FPM,[1]; [4],8.2 µg
same,FPM,[1]; [5],6.2 µg
same,FPM,[1]; [6],10.3 µg
same,FPM,[1]; [7],8.4 µg
same,FPM,[1]; [8],8.3 µg
same,FPM,[1]; [9],7.5 µg
same,FPM,[1]; [10],9.4 µg
same,FPM,[1]; [11],8.4 µg
same,FPM,[1]; [12],8.0 µg
same,FPM,[1]; [13],7.2 µg
same,FPM,[1]; [14],9.4 µg
same,FPM,[1]; [15],7.8 µg
same,FPM,[1]; [16],6.0 µg
same,FPM,[1]; [17],6.2 µg
same,FPM,"[1]; (iv) Valois DF60 valve, 40° C./75% RH, Initial",9.4 µg
same,FPM,[1]; [18],7.0 µg
same,FPM,"[1]; (v) Bespak valve, 40° C./75% RH, Initial",11.3 µg
same,FPM,[1]; [19],6.7 µg
same,FPM,"[1]; (vi) Valois DF60 valve, 40° C./75% RH, Initial",9.5 µg
same,FPM,[1]; [20],7.4 µg
same,FPM,"[1]; (vii) Valois DF60 valve, 40° C./75% RH, Initial",9.6 µg
same,Water content,"[2]; (iii) Valois D60 valve, 6.53 mg in 12 g HFA 134a, 30° C./60% RH, Initial",92 ppm
same,Water content,[2]; [3],463 ppm
same,Water content,[2]; [4],412 ppm
same,Water content,[2]; [5],616 ppm
same,Water content,[2]; [6],92 ppm
same,Water content,"[2]; (iv) Valois DF60 valve, 6.53 mg in 12 g HFA 134a, 40° C./75% RH, Initial",81 ppm
same,Water content,[2]; [7],194 ppm
same,Water content,[2]; [8],405 ppm
same,Water content,[2]; [9],446 ppm
same,Water content,[2]; [10],81 ppm
same,Water content,[2]; [11],217 ppm
same,Water content,[2]; [12],434 ppm
same,Water content,[2]; [13],485 ppm
same,Water content,[2]; [14],81 ppm
same,Water content,[2]; [15],360 ppm
same,Water content,[2]; [16],540 ppm
same,Water content,[2]; [17],526 ppm
same,Water content,"[2]; (v) Bespak valve, 6.53 mg in HFA 134a, 40° C./75% RH, Initial",118 ppm
same,Water content,[2]; [18],457 ppm
same,Water content,"[2]; (vi) Valois DF60 valve, 6.53 mg in 12 g HFA 134a, 40° C./75% RH, Initial",213 ppm
same,Water content,[2]; [19],746 ppm
same,Water content,"[2]; (vii) Valois DF60 valve, 6.53 mg in 12 g HFA134a, 40° C./75% RH, Initial",181 ppm
same,Water content,[2]; [20],668 ppm
